Measured values from patent US7632782B2, “Synergistically acting herbicidal mixtures” (BASF Aktiengesellschaft, priority 2002, dated 2009).

Assays:
Type in all cases: in vivo
Pharbitis purpurea [1] = experiment: Herbicidal action, post-emergence treatment, greenhouse
Text: (§1) The mixtures according to the invention were applied pre- and/or post-emergence (foliar treatment). The herbicidal compounds of component B) and, if desired, of component C) as well as the safener D) were applied in the formulation in which they are present as commercially available product (s).
(§2) The herbicidally active compounds of components A), B) and, if desired, C), and, if desired D), were applied in succession or jointly, in the latter case in some cases as a tank mix and in some cases as a readymix, in the form of emulsions, aqueous solutions or suspensions, the vehicle being water (300-400 l/ha). In the case of the field trials, application was effected with the aid of a mobile plot sprayer.
(§3) The test period extended over 3 to 8 weeks, and the stands were also observed at later points in time.
(§4) Damage by the herbicidal compositions was evaluated with reference to a scale of 0% to 100% in comparison with untreated control plots. 0 means no damage and 100 means complete destruction of the plants.
(§5) In these examples, the value […] at which only an additive effect of the individual active ingredients is to be expected was calculated by the method of S. R. Colby (Calculating synergistic and antagonistic responses of herbicide combinations, Weeds 15, 20 pp (1967)).
(§6) [formula] where • X=Percentage of the herbicidal action of component A) at an application rate of a; • Y=Percentage of the herbicidal action of component B), and, if desired, C), and, if desired, D) at an application rate of b, and, if desired, c, and, if desired, d; • E=expected herbicidal action of component A)+B), and, if desired C), and; if desired, D) at rates of application a+b, and, if desired, c and, if desired, d (in %).
(§7) If the value observed exceeds the value E calculated in accordance with Colby's formula, then synergism is present.

Avena fatua = experiment: as above
Text: as §1, §2, §3, §4, §5, §6, §7

Abutilon theophrasti = experiment: as above
Text: as §1, §2, §3, §4, §5, §6, §7

Brachiaria plantaginea = experiment: Herbicidal action, post-emergence treatment, field; settings: Table 15, application rate 3.91 g/ha ai
Text: as §1, §2, §3, §4, §5, §6, §7

Bidens pilosa [2] = experiment: Herbicidal action, post-emergence treatment, field
Text: as §1, §2, §3, §4, §5, §6, §7

Polygonum persicaria = experiment: Herbicidal action, post-emergence treatment, field; settings: Table 10, application rate 1.95 g/ha ai
Text: as §1, §2, §3, §4, §5, §6, §7

Pharbitis purpurea [3] = experiment: Herbicidal action, post-emergence treatment, field; settings: Table 9, application rate 3.91 g/ha ai
Text: as §1, §2, §3, §4, §5, §6, §7

Commelina benghalensis = experiment: Herbicidal action, post-emergence treatment, field; settings: Table 5, application rate 7.81 g/ha ai
Text: as §1, §2, §3, §4, §5, §6, §7

Bidens pilosa [4] = experiment: Herbicidal action, post-emergence treatment, greenhouse; settings: Table 12, application rate 7.81 g/ha ai
Text: as §1, §2, §3, §4, §5, §6, §7

Amaranthus retroflexus = experiment: as above
Text: as §1, §2, §3, §4, §5, §6, §7

Galium aparine = experiment: as above; settings: Table 11, application rate 7.81 g/ha ai
Text: as §1, §2, §3, §4, §5, §6, §7

[5] = Table 3, application rate 1.95 g/ha ai
[6] = Table 4, application rate 0.98 g/ha ai
[7] = Table 6, application rate 3.91 g/ha ai
[8] = Table 8, application rate 1.95 g/ha ai
[9] = Table 14, application rate 3.91 g/ha ai
[10] = Table 3, application rate 3.91 g/ha ai
[11] = Table 4, application rate 1.95 g/ha ai

**Q.** For `COc1cc(OC)nc(NC(=O)NS(=O)(=O)c2cc(NC=O)ccc2C(=O)N(C)C)n1` [Compound II, foramsulfuron, reference compound], which “Pharbitis purpurea Damage [%]” value (Pharbitis purpurea [1]; [5]) is on record?
**A.** 80%

**Q.** And the “Avena fatua Damage [%]” value (Avena fatua; [5])?
**A.** 50%

**Q.** And the “Avena fatua Damage [%]” value (Avena fatua; [6])?
**A.** 30%

**Q.** And the “Abutilon theophrasti Damage [%]” value (Abutilon theophrasti; [6])?
**A.** 30%

**Q.** With `Cc1c(C(=O)c2cnn(C)c2O)ccc(S(C)(=O)=O)c1C1=NOCC1` [Ia.29, 4-[2-methyl-3-(4,5-dihydroisoxazol-3-yl)-4-methylsulfonyl-benzoyl]-1-methyl-5-hydroxy-1H-pyrazole] as the compound, how does the “Brachiaria plantaginea Damage [%]” value (Brachiaria plantaginea) read?
**A.** 80%

**Q.** What about the “Bidens pilosa Damage [%]” value (Bidens pilosa [2]; Table 7, application rate 3.91 g/ha ai) of the same compound?
**A.** 30%

**Q.** What about the “Bidens pilosa Damage [%]” value (Bidens pilosa [2]; Table 13, application rate 7.81 g/ha ai) of the same compound?
**A.** 60%

**Q.** And the “Polygonum persicaria Damage [%]” value (Polygonum persicaria)?
**A.** 95%

**Q.** And the “Pharbitis purpurea Damage [%]” value (Pharbitis purpurea [3])?
**A.** 70%

**Q.** What about the “Commelina benghalensis Damage [%]” value (Commelina benghalensis) of the same compound?
**A.** 40%

**Q.** And the “Bidens pilosa Damage [%]” value (Bidens pilosa [4])?
**A.** 60%

**Q.** And the “Amaranthus retroflexus Damage [%]” value (Amaranthus retroflexus; [7])?
**A.** 60%

**Q.** What about the “Amaranthus retroflexus Damage [%]” value (Amaranthus retroflexus; [8]) of the same compound?
**A.** 40%

**Q.** What about the “Amaranthus retroflexus Damage [%]” value (Amaranthus retroflexus; [9]) of the same compound?
**A.** 60%

**Q.** And the “Pharbitis purpurea Damage [%]” value (Pharbitis purpurea [1]; [10])?
**A.** 70%

**Q.** And the “Avena fatua Damage [%]” value (Avena fatua; [10])?
**A.** 50%

**Q.** And the “Avena fatua Damage [%]” value (Avena fatua; [11])?
**A.** 25%

**Q.** And the “Abutilon theophrasti Damage [%]” value (Abutilon theophrasti; [11])?
**A.** 40%

**Q.** What about the “Abutilon theophrasti Damage [%]” value (Abutilon theophrasti; [7]) of the same compound?
**A.** 80%

**Q.** And the “Abutilon theophrasti Damage [%]” value (Abutilon theophrasti; [8])?
**A.** 40%

**Q.** And the “Abutilon theophrasti Damage [%]” value (Abutilon theophrasti; Table 11, application rate 7.81 g/ha ai)?
**A.** 95%

**Q.** And the “Abutilon theophrasti Damage [%]” value (Abutilon theophrasti; Table 12, application rate 7.81 g/ha ai)?
**A.** 95%

**Q.** What about the “Abutilon theophrasti Damage [%]” value (Abutilon theophrasti; [9]) of the same compound?
**A.** 80%

**Q.** And the “Galium aparine Damage [%]” value (Galium aparine)?
**A.** 30%
